Measurements reported in BindingDB's records for doi:10.1073/pnas.71.5.1725 (1974).

Target: T1, Muscarinic acetylcholine receptor M2 (Rattus norvegicus, UniProt P10980)
T1 sequence (P10980 whole entry): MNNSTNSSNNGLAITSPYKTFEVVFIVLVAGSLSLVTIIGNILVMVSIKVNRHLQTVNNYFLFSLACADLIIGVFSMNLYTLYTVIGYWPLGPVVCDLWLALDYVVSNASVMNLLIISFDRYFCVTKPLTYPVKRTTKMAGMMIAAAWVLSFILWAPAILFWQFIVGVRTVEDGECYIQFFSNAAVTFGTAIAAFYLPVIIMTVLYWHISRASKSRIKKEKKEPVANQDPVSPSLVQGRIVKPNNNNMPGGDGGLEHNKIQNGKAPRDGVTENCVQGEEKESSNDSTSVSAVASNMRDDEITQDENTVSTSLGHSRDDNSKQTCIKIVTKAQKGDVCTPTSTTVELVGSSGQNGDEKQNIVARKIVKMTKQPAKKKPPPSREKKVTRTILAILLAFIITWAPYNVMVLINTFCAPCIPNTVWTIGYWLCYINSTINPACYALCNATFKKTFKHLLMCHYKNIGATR

SMILES	Ki [µM]
CC(C)[N+](C)(CCC(C(N)=O)(c1ccccc1)c1ccccc1)C(C)C	0.001
O=C1CCCN1CC#CCN1CCCC1 [1-[4-(2-oxo-pyrrolidin-1-yl)-but-2-ynyl]-pyrrolidinium]	0.5
CN(C)CCC(c1ccc(Br)cc1)c1ccccn1 (stereo not drawn) [2-(p-bromo-alpha-(2-dimethylaminoethyl)benzyl)pyridine]	> 10
O=C(O)C=CC(=O)Oc1ccc(Cl)cc1 [NSC_6445134]	> 10
CN(C)CCC(c1ccc(Cl)cc1)c1ccccn1 (stereo not given) [clorfeniramina]	> 10
